The target in one assay is BRM (Homo sapiens, UniProt P51531). Kind of assay: ATPase catalytic activity assay of BRM (ADP-Glo). Format: biochemical. The conditions noted are these: for IC50: read-out: BRM IC50 (μM)*. An outline of the steps: (§1)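 In vitro biochemical ATPase assay; product ADP detected after removing leftover ATP and reconverting ADP to ATP for a luciferase signal.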
(ADP-Glo first removes unused ATP, then detects ADP through luciferase.)

In another assay the target is BRG-1 (Homo sapiens, UniProt P51532). Kind of assay: ATPase catalytic activity assay of BRG-1 (ADP-Glo). The conditions noted are these: ATPase catalytic activity, ADP-Glo; for IC50: read-out: BRG1 IC50 (μM)*; for Emax: read-out: BRG1 Max % Inhibition. Format: biochemical. An outline of the steps: as §1
Chain of BRG-1 (P51532 whole entry): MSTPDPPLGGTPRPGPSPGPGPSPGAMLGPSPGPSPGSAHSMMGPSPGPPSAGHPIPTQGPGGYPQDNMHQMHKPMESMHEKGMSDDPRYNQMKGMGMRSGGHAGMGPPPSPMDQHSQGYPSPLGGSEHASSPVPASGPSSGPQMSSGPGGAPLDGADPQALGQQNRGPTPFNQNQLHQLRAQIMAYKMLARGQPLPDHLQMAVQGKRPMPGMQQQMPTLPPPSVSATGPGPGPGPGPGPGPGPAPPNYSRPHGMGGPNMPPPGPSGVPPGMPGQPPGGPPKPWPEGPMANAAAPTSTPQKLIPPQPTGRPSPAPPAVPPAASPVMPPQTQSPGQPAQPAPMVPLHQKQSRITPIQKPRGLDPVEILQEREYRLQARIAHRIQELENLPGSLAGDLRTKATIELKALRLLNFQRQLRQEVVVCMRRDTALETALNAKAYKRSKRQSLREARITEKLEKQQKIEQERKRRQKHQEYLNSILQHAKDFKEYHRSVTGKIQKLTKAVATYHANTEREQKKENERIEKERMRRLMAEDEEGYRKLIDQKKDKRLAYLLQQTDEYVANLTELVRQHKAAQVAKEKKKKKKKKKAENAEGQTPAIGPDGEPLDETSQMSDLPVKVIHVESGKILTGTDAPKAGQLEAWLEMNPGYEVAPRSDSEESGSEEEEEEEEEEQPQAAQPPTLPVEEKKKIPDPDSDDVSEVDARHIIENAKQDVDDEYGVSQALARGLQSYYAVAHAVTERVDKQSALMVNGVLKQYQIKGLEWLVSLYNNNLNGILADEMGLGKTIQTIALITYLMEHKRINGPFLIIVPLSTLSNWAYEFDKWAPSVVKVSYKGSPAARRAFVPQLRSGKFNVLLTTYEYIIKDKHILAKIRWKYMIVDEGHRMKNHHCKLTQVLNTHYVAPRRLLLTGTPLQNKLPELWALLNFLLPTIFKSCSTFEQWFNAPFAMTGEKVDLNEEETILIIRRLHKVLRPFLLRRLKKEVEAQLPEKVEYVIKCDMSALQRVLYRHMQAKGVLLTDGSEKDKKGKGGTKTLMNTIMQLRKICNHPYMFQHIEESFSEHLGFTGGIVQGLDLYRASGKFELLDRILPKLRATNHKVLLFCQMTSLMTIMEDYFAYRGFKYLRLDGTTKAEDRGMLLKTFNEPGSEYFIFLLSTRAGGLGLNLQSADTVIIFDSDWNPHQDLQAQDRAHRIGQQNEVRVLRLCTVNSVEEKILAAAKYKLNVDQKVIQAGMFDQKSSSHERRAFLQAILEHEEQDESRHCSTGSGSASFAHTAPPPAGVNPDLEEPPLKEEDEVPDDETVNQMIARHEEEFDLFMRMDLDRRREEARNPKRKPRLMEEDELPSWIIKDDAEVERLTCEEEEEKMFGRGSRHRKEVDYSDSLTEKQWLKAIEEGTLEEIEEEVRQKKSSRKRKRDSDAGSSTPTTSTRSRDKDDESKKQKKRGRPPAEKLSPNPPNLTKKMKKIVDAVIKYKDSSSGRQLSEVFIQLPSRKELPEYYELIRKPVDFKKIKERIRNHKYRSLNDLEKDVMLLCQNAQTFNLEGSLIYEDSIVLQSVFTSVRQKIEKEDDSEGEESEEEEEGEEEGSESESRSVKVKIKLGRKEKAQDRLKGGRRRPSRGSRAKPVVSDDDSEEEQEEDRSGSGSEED

Each structure is given as a SMILES string. Read-outs that look alike come from different tables or passages of the source.

Chain of BRM (P51531 whole entry): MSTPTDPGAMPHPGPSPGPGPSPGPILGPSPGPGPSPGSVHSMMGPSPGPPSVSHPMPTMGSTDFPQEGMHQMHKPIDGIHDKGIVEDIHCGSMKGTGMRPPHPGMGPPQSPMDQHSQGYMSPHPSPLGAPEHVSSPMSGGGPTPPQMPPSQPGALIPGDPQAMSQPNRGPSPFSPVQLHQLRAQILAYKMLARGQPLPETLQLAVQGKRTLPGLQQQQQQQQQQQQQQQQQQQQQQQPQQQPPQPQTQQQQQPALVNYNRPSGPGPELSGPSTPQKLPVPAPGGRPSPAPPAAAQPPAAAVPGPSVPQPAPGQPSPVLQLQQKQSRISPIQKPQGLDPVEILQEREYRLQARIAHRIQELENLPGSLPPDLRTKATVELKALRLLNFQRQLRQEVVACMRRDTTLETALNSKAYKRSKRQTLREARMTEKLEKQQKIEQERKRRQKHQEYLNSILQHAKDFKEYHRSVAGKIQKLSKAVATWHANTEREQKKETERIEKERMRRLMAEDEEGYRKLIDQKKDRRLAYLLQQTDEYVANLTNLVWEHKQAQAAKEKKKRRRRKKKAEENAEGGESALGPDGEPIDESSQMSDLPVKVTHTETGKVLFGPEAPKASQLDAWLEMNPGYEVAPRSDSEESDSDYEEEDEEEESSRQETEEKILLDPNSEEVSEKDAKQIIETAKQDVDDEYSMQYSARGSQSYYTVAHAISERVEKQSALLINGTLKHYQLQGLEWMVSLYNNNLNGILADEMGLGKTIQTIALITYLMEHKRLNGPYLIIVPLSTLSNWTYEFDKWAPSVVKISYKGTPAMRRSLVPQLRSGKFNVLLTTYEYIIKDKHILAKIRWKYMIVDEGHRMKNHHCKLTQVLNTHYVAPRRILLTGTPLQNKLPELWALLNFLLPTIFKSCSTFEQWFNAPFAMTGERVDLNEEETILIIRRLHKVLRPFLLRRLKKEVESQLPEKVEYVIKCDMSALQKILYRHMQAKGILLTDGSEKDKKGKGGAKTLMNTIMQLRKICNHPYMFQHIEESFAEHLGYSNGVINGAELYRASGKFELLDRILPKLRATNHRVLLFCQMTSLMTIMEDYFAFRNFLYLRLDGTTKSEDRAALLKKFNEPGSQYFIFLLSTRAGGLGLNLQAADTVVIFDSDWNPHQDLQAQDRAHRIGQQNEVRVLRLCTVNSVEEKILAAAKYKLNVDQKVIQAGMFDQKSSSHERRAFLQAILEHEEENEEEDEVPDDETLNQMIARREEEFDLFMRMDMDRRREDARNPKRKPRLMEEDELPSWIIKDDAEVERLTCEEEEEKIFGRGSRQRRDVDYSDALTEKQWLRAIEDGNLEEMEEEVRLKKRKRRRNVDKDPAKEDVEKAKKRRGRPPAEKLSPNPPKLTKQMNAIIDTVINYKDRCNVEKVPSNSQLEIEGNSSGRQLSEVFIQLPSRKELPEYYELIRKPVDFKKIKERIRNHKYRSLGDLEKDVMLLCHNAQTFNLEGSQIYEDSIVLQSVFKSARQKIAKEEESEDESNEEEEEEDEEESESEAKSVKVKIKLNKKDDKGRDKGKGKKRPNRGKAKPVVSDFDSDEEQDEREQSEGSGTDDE

As for `Cc1cc(-c2cccc(-c3csc(NC(=O)CNC(=O)c4cccc(C(C)(C)CO)c4)n3)n2)ncn1` [Compound 230, 3-(2-hydroxy-1,1-dimethyl-ethyl)-N-[2-[[4-[6-(6-methylpyrimidin-4-yl)-2-pyridyl]thiazol-2-yl]amino]-2-oxo-ethyl]benzamide], on BRM, the “BRM Max % Inhibition” value is reported as above 95% and the IC50 is below 0.1 µM. In addition, on BRG-1, the IC50 lay within 0.1 to 1 µM and the Emax was above 80%.
Turning to `CC(=O)N1CC(c2cccc(-c3csc(NC(=O)CNC(=O)c4ccc5c(c4)[C@](C)(C#N)COC5)n3)c2)C1` [Compound 379, (R)-N-(2-((4-(3-(1-acetylazetidin-3-yl)phenyl)thiazol-2-yl)amino)-2-oxoethyl)-4-cyano-4-methylisochromane-6-carboxamide], on BRM, the “BRM Max % Inhibition” value was above 95% and the IC50 was below 0.1 µM. For the same compound, at BRG-1, the IC50 lay within 0.1 to 1 µM and the Emax was above 95%.
`Cc1cc(-c2cccc(-c3csc(NC(=O)CNC(=O)c4ccc5c(c4)[C@@](C)(CO)CCC5)n3)n2)ncn1` [Compound 207, (S)-8-(hydroxymethyl)-8-methyl-N-(2-((4-(6-(6-methylpyrimidin-4-yl)pyridin-2-yl)thiazol-2-yl)amino)-2-oxoethyl)-5,6,7,8-tetrahydronaphthalene-2-carboxamide]: at BRM, the “BRM Max % Inhibition” value is reported as above 90% and the IC50 lay in the range of 0.1 to 1 µM. In addition, at BRG-1, the IC50 was above 5 µM and the Emax was above 50%.
As to `C[C@@H]1CN(c2cccc(-c3csc(NC(=O)CNC(=O)c4cccc(C5(O)COC5)c4)n3)c2)C[C@H](C)O1` [Compound 184, N-(2-((4-(3-((2R,6S)-2,6-dimethylmorpholino)phenyl)thiazol-2-yl)amino)-2-oxoethyl)-3-(3-hydroxyoxetan-3-yl)benzamide], at BRM, the “BRM Max % Inhibition” value is above 90% and the IC50 lay within 0.1 to 1 µM. On BRG-1, the IC50 lay in the range of 1 to 5 µM and the Emax is above 80%.
Take `Cn1cnc2ccc(-c3csc(NC(=O)CNC(=O)c4ccc5c(c4)[C@@](C)(CO)CC5)n3)cc21` [Compound 257, (S)-3-(hydroxymethyl)-3-methyl-N-(2-((4-(1-methyl-1H-benzo[d]imidazol-6-yl)thiazol-2-yl)amino)-2-oxoethyl)-2,3-dihydro-1H-indene-5-carboxamide]: at BRM, the “BRM Max % Inhibition” value is above 70% and the IC50 lay in the range of 1 to 5 µM. In addition, at BRG-1, the IC50 is above 5 µM and the Emax is above 30%.
For the compound `CN1CC=Cc2ccc(C(=O)NCC(=O)Nc3nc(-c4cccc(-c5ccncc5)c4)cs3)cc2S1(=O)=O` [Compound 130, 2-methyl-1,1-dioxo-N-[2-oxo-2-[[4-[3-(4-pyridyl)phenyl]thiazol-2-yl]amino]ethyl]-3H-1,2-benzothiazepine-8-carboxamide], at BRM, the “BRM Max % Inhibition” value is recorded as above 60% and the IC50 fell in the range of 0.1 to 1 µM. Moreover, on BRG-1, the IC50 is above 5 µM and the Emax is below 30%.
As for `CC(C)(C)c1cccc(C(=O)NCC(=O)Nc2nc(-c3cccc(N4CCC4)c3)cs2)c1` [Compound 196, N-(2-((4-(3-(azetidin-1-yl)phenyl)thiazol-2-yl)amino)-2-oxoethyl)-3-(tert-butyl)benzamide], on BRM, the “BRM Max % Inhibition” value is above 90% and the IC50 was 0.1 to 1 µM. Besides, at BRG-1, the IC50 lay within 1 to 5 µM and the Emax was above 60%.
The matching figures for `Cc1cc(-c2cccc(-c3csc(NC(=O)CNC(=O)c4cccc(S(=O)(=O)C(C)CN)c4)n3)c2)cc(C)n1` (centres unmarked) [Compound 114, 3-((1-aminopropan-2-yl)sulfonyl)-N-(2-((4-(3-(2,6-dimethylpyridin-4-yl)phenyl)thiazol-2-yl)amino)-2-oxoethyl)benzamide]: above 90%, below 0.1 µM, 0.1 to 1 µM and above 95%.
For `C[C@@]1(C#N)COCc2ccc(C(=O)NCC(=O)Nc3nc(-c4cccc([C@@H]5CC5(F)F)c4)cs3)cc21` [Compound 388, (R)-4-cyano-N-(2-((4-(3-((S)-2,2-difluorocyclopropyl)phenyl)thiazol-2-yl)amino)-2-oxoethyl)-4-methylisochromane-6-carboxamide], on BRM, the “BRM Max % Inhibition” value is above 95% and the half-inhibitory concentration (IC50) was below 0.1 µM. In addition, at BRG-1, the IC50 was below 0.1 µM and the Emax is above 95%.
As to `CC(C)S(=O)(=O)c1cccc(C(=O)NCC(=O)Nc2nc(-c3cccc(-c4cc(C#N)cc(C#N)c4)c3)cs2)c1` [Compound 21, N-(2-((4-(3′,5′-dicyano-[1,1′-biphenyl]-3-yl)thiazol-2-yl)amino)-2-oxoethyl)-3-(isopropylsulfonyl)benzamide], on BRM, the “BRM Max % Inhibition” value is on record as above 80% and the IC50 was 0.1 to 1 µM. Besides, on BRG-1, the IC50 was in the range of 1 to 5 µM and the Emax is above 70%.
As to `COc1cccc(-c2csc(NC(=O)CNC(=O)c3ccc4c(c3)[C@](C)(F)COC4)n2)c1` [Compound 312, (S)-4-fluoro-N-(2-((4-(3-methoxyphenyl)thiazol-2-yl)amino)-2-oxoethyl)-4-methylisochromane-6-carboxamide], on BRM, the “BRM Max % Inhibition” value is recorded as above 95% and the IC50 was below 0.1 µM. In addition, at BRG-1, the IC50 lay in the range of 0.1 to 1 µM and the Emax is above 95%.
The matching figures for `C[C@@H]1CN(c2cccc(-c3csc(NC(=O)CNC(=O)c4cccc(C5(CO)CC5)c4)n3)n2)C[C@H](C)O1` [Compound 182, N-[2-[[4-[6-[(cis)-2,6-dimethylmorpholin-4-yl]-2-pyridyl]thiazol-2-yl]amino]-2-oxo-ethyl]-3-[1-(hydroxymethyl)cyclopropyl]benzamide]: above 95%, below 0.1 µM, 0.1 to 1 µM and above 90%.
With `C[C@@H]1CN(c2cccc(-c3csc(NC(=O)CNC(=O)c4cccc([C@]5(F)C[C@@H](O)C5)c4)n3)c2)C[C@H](C)O1` [Compound 151, N-(2-((4-(3-((cis)-2,6-dimethylmorpholino)phenyl)thiazol-2-yl)amino)-2-oxoethyl)-3-((1s,3s)-1-fluoro-3-hydroxycyclobutyl)benzamide], at BRM, the “BRM Max % Inhibition” value was above 95% and the IC50 was below 0.1 µM. Besides, on BRG-1, the IC50 lay in the range of 0.1 to 1 µM and the Emax is above 95%.
With `C[C@@H]1CN(c2cccc(-c3csc(NC(=O)CNC(=O)c4ccc5c(c4)[C@](C)(C#N)COC5)n3)c2)C[C@H](C)O1` [Compound 254, (R)-4-cyano-N-(2-((4-(3-((cis)-2,6-dimethylmorpholino)phenyl)thiazol-2-yl)amino)-2-oxoethyl)-4-methylisochroman-6-carboxamide], on BRM, the “BRM Max % Inhibition” value was above 95% and the IC50 is below 0.1 µM. For the same compound, on BRG-1, the IC50 was below 0.1 µM and the Emax was above 95%.
For `CC(C)S(=O)(=O)c1cccc(C(=O)NCC(=O)Nc2nc(-c3cccc(N4CCOCC4)c3)cs2)c1` [Compound 126, 3-isopropylsulfonyl-N-[2-[[4-(3-morpholinophenyl)thiazol-2-yl]amino]-2-oxoethyl]benzamide], on BRM, the “BRM Max % Inhibition” value was above 80% and the IC50 lay within 0.1 to 1 µM. At BRG-1, the IC50 fell in the range of 1 to 5 µM and the Emax was above 60%.
`COc1cc(-c2cccc(-c3csc(NC(=O)CNC(=O)c4cccc(S(=O)(=O)C(C)C)c4)n3)c2)nc(C)n1` [Compound 123, 3-isopropylsulfonyl-N-[2-[[4-[3-(6-methoxy-2-methyl-pyrimidin-4-yl)phenyl]thiazol-2-yl]amino]-2-oxo-ethyl]benzamide]: at BRM, the “BRM Max % Inhibition” value is on record as above 95% and the IC50 was below 0.1 µM. Further, at BRG-1, the concentration for half-maximal inhibition (IC50) was 0.1 to 1 µM and the Emax is above 80%.
`CCC(C)(CO)c1cccc(C(=O)NCC(=O)Nc2nc(-c3cccc(-c4ccncc4)c3)cs2)c1` (centres unmarked) [Compound 242, 3-[1-(hydroxymethyl)-1-methyl-propyl]-N-[2-oxo-2-[[4-[3-(4-pyridyl)phenyl]thiazol-2-yl]amino]ethyl]benzamide]: at BRM, the “BRM Max % Inhibition” value is above 80% and the IC50 is 0.1 to 1 µM. In addition, at BRG-1, the IC50 fell in the range of 1 to 5 µM and the Emax is above 50%.
`C[C@@H]1CN(c2cccc(-c3csc(NC(=O)CNC(=O)c4cccc([C@@]5(C)COC[C@@H]5O)c4)n3)n2)C[C@H](C)O1` (stereo in doubt) [Compound 413, N-(2-((4-(6-((cis)-2,6-dimethylmorpholino)pyridin-2-yl)thiazol-2-yl)amino)-2-oxoethyl)-3-((cis)-4-hydroxy-3-methyltetrahydrofuran-3-yl)benzamide]: on BRM (30 nM BRM, 400 μM ATP), the “BRM Max % Inhibition” value is above 95% and the IC50 was 0.1 to 1 µM. On BRG-1 (30 nM BRG-1, 400 μM ATP), the IC50 fell in the range of 1 to 5 µM and the Emax was above 95%.
Turning to `O=C(CNC(=O)c1ccc2c(c1)[C@](F)(C(F)F)COC2)Nc1nc(-c2cc(F)cc(N3CCC3)c2)cs1` [Compound 276, (R)-N-(2-((4-(3-(azetidin-1-yl)-5-fluorophenyl)thiazol-2-yl)amino)-2-oxoethyl)-4-(difluoromethyl)-4-fluoroisochromane-6-carboxamide], on BRM, the “BRM Max % Inhibition” value is above 95% and the IC50 is below 0.1 µM. Also, on BRG-1, the IC50 was below 0.1 µM and the Emax was above 95%.
Turning to `C[C@@]1(C#N)COCc2ccc(C(=O)NCC(=O)Nc3nc(-c4cccc([C@H]5CC5(F)F)c4)cs3)cc21` [Compound 391, (R)-4-cyano-N-(2-((4-(3-((R)-2,2-difluorocyclopropyl)phenyl)thiazol-2-yl)amino)-2-oxoethyl)-4-methylisochromane-6-carboxamide], at BRM, the “BRM Max % Inhibition” value was above 95% and the IC50 is below 0.1 µM. Moreover, on BRG-1, the IC50 was in the range of 0.1 to 1 µM and the Emax is above 95%.

For orientation: IC50 means the concentration that inhibits the measured activity by half.

The values are drawn from patent publication US12685735B2 (Foghorn Therapeutics Inc., priority 2020, dated 2026).
